Measured values published in US20060287247A1, “Halogen-substituted thienyl compounds” (priority 2001, published 2006).
≈ marks a conversion by molar mass, not a printed value. Where two headings read alike, the source gives them in different places.

What was measured:
[1] = tested on: E. faecalis ATCC 29212; assay: NCCLS broth microdilution MIC; format: cell-based, Enterococcus faecalis; conditions: for MIC: Enterococcus faecalis
Method: (§1) Compounds according to this invention were screened for their in vitro activities against selected species of bacteria and fungi. The minimal inhibition concentration (MIC) of these compounds was determined using the National Committee for Clinical Laboratory Standards (NCCLS) broth microdilution assay in microtiter plates, as set forth in: (1) the guidelines of the National Committee for Clinical Laboratory Standards (NCCLS) Document M7-A4 (NCCLS, 1997); (2) the guidelines of the National Committee for Clinical Laboratory Standards (NCCLS) Document M11-A4 (NCCLS, 1997); and (3) the guidelines and reference method of the National Committee for Clinical Laboratory Standards (NCCLS) Document M27-T (NCCLS, 1995). For antifungal essays, the method recommended in Murray, P R., 1995 Manual of Clinical Microbiology (ASM Press, Washington, D.C.), was employed. […]

[2] = tested on: C. albicans ATCC 38247; assay: NCCLS broth microdilution MIC (antifungal); format: cell-based; conditions: E = C. albicans ATCC 38247
Method: as §1

[3] = tested on: B. cereus ATCC 11778; assay: NCCLS broth microdilution MIC; format: cell-based, Bacillus cereus; conditions: for MIC: Bacillus cereus
Method: as §1

[4] = tested on: S. pneumoniae ATCC 49619; assay: NCCLS broth microdilution MIC; format: cell-based, Streptococcus pneumoniae; conditions: for MIC: Streptococcus pneumoniae
Method: as §1

[5] = tested on: E. coli ATCC 25922; assay: NCCLS broth microdilution MIC; format: cell-based; conditions: for MIC: Escherichia coli
Method: as §1

[6] = tested on: S. aureus ATCC 29213; assay: NCCLS broth microdilution MIC; format: cell-based, Staphylococcus aureus; conditions: for MIC: Staphylococcus aureus
Method: as §1

[7] = ATCC29212, B = E. faecalis ATCC 29212, read-out: Minimum Inhibitory Concentration (MIC)
[8] = ATCC11778, C = B. cereus ATCC 11778, read-out: Minimum Inhibitory Concentration (MIC)
[9] = ATCC49619, F = S. pneumoniae ATCC 49619, read-out: Minimum Inhibitory Concentration (MIC)
[10] = ATCC25922, D = E. coli ATCC 25922, read-out: Minimum Inhibitory Concentration (MIC)

Compound	Minimum Inhibitory Concentration (MIC) ([1]; B = E. faecalis ATCC 29212)	Minimum Inhibitory Concentration (MIC) [2]	Minimum Inhibitory Concentration (MIC) ([3]; C = B. cereus ATCC 11778)	Minimum Inhibitory Concentration (MIC) ([4]; F = S. pneumoniae ATCC 49619)	Minimum Inhibitory Concentration (MIC) ([5]; D = E. coli ATCC 25922)	Minimum Inhibitory Concentration (MIC) ([6]; A = S. aureus ATCC 29213)	other results
Cn1cc(NC(=O)c2cc(NC(=O)c3cc(NC(=O)c4sccc4Cl)cn3C)cn2C)cc1C(=O)NCCN1CCC(F)CC1 [Ie-13]	+++ (+++ = MIC ≦4)	>32 µg/mL	+++ (+++ = MIC ≦4)	+++ (+++ = MIC ≦4)	>32 µg/mL	–	–
Cn1cc(NC(=O)c2cc(NC(=O)c3cc(NC(=O)c4scc(Br)c4Cl)cn3C)cn2C)cc1C(=O)NCCN1CCSCC1 [Ie-14]	+++ (+++ = MIC ≦4)	>32 µg/mL	+++ (+++ = MIC ≦4)	+++ (+++ = MIC ≦4)	>32 µg/mL	–	–
Cn1cc(NC(=O)c2cc(NC(=O)c3cc(NC(=O)c4scc(Br)c4Cl)cn3C)cn2C)cc1C(=O)NCCN1CCCCC1 [Ie-15]	+++ (+++ = MIC ≦4)	+ (+ = MIC from 12 to 32, inclusive)	+++ (+++ = MIC ≦4)	+++ (+++ = MIC ≦4)	+ (+ = MIC from 12 to 32, inclusive)	–	–
Cn1cc(NC(=O)c2cc(NC(=O)c3cc(NC(=O)c4sccc4Cl)cs3)cn2C)cc1C(=O)NCCN1CCOCC1 [Ig-1]	+++ (+++ = MIC ≦4)	>32 µg/mL	–	++ (++ = MIC between 4 and 12)	–	+++ (+++ = MIC ≦4)	–
Cn1cc(NC(=O)c2cc(NC(=O)c3cc(NC(=O)c4sccc4Cl)cn3CCCO)cn2C)cc1C(=O)NCCC(=O)NCCN1CCOCC1 [Ig-2]	>32 µg/mL	>32 µg/mL	–	>32 µg/mL	–	>32 µg/mL	–
CC(C)S(=O)(=O)c1csc(C(=O)Nc2csc(C(=O)Nc3cc(C(=O)Nc4cc(C(=O)NCCN5CCOCC5)n(C)c4)n(C)c3)c2)c1Cl [Ig-4]	+++ (+++ = MIC ≦4)	>32 µg/mL	–	+++ (+++ = MIC ≦4)	–	+++ (+++ = MIC ≦4)	–
Cn1cc(NC(=O)c2cc(NC(=O)c3cc(NC(=O)c4sccc4F)cs3)cn2C)cc1C(=O)NCCN1CCOCC1 [Ig-5]	+++ (+++ = MIC ≦4)	>32 µg/mL	–	+++ (+++ = MIC ≦4)	–	+++ (+++ = MIC ≦4)	–
Cn1cc(NC(=O)c2cc(NC(=O)c3nc(NC(=O)c4scc(Br)c4Cl)cn3C)cn2C)cc1C(=O)NCCN1CCSCC1 [Ig-10]	+++ (+++ = MIC ≦4)	>32 µg/mL	+++ (+++ = MIC ≦4)	+++ (+++ = MIC ≦4)	>32 µg/mL	–	–
Cn1cc(NC(=O)c2cc(NC(=O)c3ccc(NC(=O)c4nc(NC(=O)c5sccc5Cl)cn4C)cc3)cn2C)cc1C(=O)NCCN1CCC(F)(F)CC1 [Ih-2]	–	–	–	–	–	–	MIC [1, 7]: < 4 µg/mL; MIC ([2]; Candida albicans, ATCC38247, read-out: Minimum Inhibitory Concentration (MIC)): > 32 µg/mL; MIC [3, 8]: > 32 µg/mL; MIC [4, 9]: < 4 µg/mL; MIC [5, 10]: > 32 µg/mL
Cn1cc(NC(=O)c2cc(NC(=O)CNC(=N)N)cn2C)cc1C(=O)NCCC(=N)N [Netropsin, netropsin, reference compound]	–	–	–	–	–	–	MIC ([1]; ATCC29212, read-out: Minimum Inhibitory Concentration (MIC)): < 4 µg/mL; MIC ([3]; ATCC11778, read-out: Minimum Inhibitory Concentration (MIC)): < 4 µg/mL; MIC ([6]; ATCC29213, read-out: Minimum Inhibitory Concentration (MIC)): < 4 µg/mL; MIC ([4]; ATCC49619, read-out: Minimum Inhibitory Concentration (MIC)): < 4 µg/mL; MIC ([5]; ATCC25922, read-out: Minimum Inhibitory Concentration (MIC)): < 4 µg/mL
CC1COc2c(N3CCN(C)CC3)c(F)cc3c(=O)c(C(=O)O)cn1c23 (stereo not drawn) [Ofloxacin, reference compound]	–	–	–	–	–	–	MIC [1, 7]: 4 to 12 µg/mL (≈ 11.1 to 33.2 µM); MIC [3, 8]: < 4 µg/mL; MIC ([6]; ATCC29213, A = S. aureus ATCC 29213, read-out: Minimum Inhibitory Concentration (MIC)): < 4 µg/mL; MIC [4, 9]: < 4 µg/mL; MIC [5, 10]: < 4 µg/mL
